Experimental data from ChEMBL document CHEMBL5214923, “Contemporary mTOR inhibitor scaffolds to diseases breakdown: A patent review (2015-2021)” (Eur J Med Chem, 2022).
One block for each compound: values may come before it.

Key:
[1] = Solubility of the compound in water; type: physicochemical
A549 = assay: Antitumor activity against human A549 cells assessed as cell growth inhibition incubated for 72 hrs by Cell Titer-Glo assay; type: functional, cell-based; conditions: A549, 72 h
SF-268 = assay: Antitumor activity against human SF-268 cells assessed as cell growth inhibition; type: functional, cell-based
[2] = Antitumor activity against human U-87 MG cells assessed as cell growth inhibition; type: functional, cell-based, U-87MG ATCC
DU-145 = assay: Antitumor activity against human DU-145 cells assessed as cell growth inhibition; type: functional, cell-based
PC-3 = assay: Antitumor activity against human PC-3 cells assessed as cell growth inhibition; type: functional, cell-based
[3] = molecular target: T1, Serine/threonine-protein kinase mTOR (Homo sapiens, UniProt P42345); assay: Inhibition of recombinant mTOR (unknown origin) using GFP-4E-BP1 as substrate preincubated for 15 mins followed by substrate addition measured after 1 hr by TR-FRET assay
[4] = molecular target: PI3-kinase p110-alpha/p85-alpha (Homo sapiens, UniProt P42336); assay: Inhibition of PI3K p110alpha/p85alpha (unknown origin) using PIP2 as substrate preincubated for 15 mins followed by substrate addition measured after 1 hr in presence of ATP by TR-FRET assay; type: protein-complex assay
Sequence of PI3-kinase p110-alpha/p85-alpha (P27986 whole entry): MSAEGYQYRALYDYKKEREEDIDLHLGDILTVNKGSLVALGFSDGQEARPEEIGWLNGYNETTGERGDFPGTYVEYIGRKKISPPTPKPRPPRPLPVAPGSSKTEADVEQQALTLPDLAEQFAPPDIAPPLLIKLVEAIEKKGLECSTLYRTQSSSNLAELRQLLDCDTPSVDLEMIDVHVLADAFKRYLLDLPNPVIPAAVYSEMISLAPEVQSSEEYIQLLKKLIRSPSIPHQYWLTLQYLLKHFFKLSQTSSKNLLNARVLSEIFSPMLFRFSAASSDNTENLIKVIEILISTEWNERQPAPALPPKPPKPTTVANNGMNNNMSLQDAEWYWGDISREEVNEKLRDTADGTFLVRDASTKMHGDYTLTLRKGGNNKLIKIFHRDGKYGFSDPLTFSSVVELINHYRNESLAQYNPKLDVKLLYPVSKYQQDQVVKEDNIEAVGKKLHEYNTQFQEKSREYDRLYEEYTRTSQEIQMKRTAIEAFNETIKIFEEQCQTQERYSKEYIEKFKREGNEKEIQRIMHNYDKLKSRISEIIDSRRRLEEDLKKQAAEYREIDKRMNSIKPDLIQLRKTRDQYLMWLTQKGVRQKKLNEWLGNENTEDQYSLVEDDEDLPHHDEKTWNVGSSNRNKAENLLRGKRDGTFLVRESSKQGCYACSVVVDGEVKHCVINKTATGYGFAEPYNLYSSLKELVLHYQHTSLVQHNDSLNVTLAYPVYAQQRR
Sequence of PI3-kinase p110-alpha/p85-alpha (P42336 whole entry): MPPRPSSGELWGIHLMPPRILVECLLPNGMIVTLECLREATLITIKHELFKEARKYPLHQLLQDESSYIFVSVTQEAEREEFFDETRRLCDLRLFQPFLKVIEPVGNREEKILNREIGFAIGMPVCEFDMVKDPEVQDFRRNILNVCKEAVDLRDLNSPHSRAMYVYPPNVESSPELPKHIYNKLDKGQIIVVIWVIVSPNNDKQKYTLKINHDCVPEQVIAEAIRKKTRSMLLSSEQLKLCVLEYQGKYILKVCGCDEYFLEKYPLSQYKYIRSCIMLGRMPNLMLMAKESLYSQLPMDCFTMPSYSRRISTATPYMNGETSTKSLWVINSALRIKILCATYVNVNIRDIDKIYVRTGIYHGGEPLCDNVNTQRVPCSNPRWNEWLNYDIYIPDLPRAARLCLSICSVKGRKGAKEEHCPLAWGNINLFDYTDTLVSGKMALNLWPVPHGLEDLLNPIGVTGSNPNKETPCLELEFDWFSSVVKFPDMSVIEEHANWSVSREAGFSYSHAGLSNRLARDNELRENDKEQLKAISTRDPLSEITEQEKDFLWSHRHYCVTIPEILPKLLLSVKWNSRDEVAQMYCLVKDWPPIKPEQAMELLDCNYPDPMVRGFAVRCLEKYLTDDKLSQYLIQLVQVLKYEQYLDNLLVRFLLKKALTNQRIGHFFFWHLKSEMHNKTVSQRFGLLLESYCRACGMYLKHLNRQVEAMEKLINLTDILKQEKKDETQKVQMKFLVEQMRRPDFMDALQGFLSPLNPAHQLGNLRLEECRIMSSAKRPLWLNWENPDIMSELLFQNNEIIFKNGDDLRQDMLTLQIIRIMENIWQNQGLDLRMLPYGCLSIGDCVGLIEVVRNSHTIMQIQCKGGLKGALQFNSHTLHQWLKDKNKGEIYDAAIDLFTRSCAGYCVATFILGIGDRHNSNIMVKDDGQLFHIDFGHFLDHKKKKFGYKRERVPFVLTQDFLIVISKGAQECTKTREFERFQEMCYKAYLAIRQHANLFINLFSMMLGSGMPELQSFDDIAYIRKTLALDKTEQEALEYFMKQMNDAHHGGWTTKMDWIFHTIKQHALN

[5] = molecular target: T1, Serine/threonine-protein kinase mTOR; assay: Inhibition of mTOR (unknown origin) assessed as residual activity at 30 nM relative to control; values are per cent of control
mTORC1 [6] = molecular target: T2, mTORC1 (Homo sapiens, UniProt P42345+Q8N122+Q9BVC4); assay: Inhibition of mTORC1 (unknown origin) assessed as measuring phosphorylated p7OS6K level at 0.2 uM relative to control; type: protein-complex assay
mTORC1 [7] = molecular target: T2, mTORC1; assay: Inhibition of mTORC1 (unknown origin) assessed as measuring phosphorylated 4EBP1 level at 1 uM relative to control; type: protein-complex assay
mTORC2 (Homo sapiens) = mTORC2 (Homo sapiens) (UniProt P42345+Q6R327+Q9BVC4+Q9BPZ7); assay: Inhibition of mTORC2 (unknown origin) assessed as measuring phosphorylated AKT at 0.5 uM relative to control; type: protein-complex assay
[8] = molecular target: Peptidyl-prolyl cis-trans isomerase FKBP1A (Homo sapiens, UniProt P62942); assay: Binding affinity to FKBP12 (unknown origin) assessed as inhibition constant
Sequence of Peptidyl-prolyl cis-trans isomerase FKBP1A (P62942 whole entry): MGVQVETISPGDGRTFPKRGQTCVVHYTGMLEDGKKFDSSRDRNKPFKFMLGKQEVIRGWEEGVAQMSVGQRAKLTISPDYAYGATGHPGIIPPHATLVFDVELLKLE

mTORC1 [9] = molecular target: T2, mTORC1; assay: Inhibition of mTORC1 in human Jurkat cells assessed as inhibition of S6K phosphorylation incubated for 4 hrs by Western blot analysis; type: cell-based
[10] = molecular target: T3, Phosphatidylinositol 4,5-bisphosphate 3-kinase catalytic subunit alpha isoform (Homo sapiens, UniProt P42336); assay: Inhibition of PI3Kalpha (unknown origin) by TR-FRET assay
T3 sequence (P42336 whole entry, canonical isoform): as the sequence (P42336 whole entry) above

[11] = molecular target: Phosphatidylinositol 4,5-bisphosphate 3-kinase catalytic subunit beta isoform (Homo sapiens, UniProt P42338); assay: Inhibition of PI3Kbeta (unknown origin) by TR-FRET assay
Sequence of Phosphatidylinositol 4,5-bisphosphate 3-kinase catalytic subunit beta isoform (P42338 whole entry, canonical isoform): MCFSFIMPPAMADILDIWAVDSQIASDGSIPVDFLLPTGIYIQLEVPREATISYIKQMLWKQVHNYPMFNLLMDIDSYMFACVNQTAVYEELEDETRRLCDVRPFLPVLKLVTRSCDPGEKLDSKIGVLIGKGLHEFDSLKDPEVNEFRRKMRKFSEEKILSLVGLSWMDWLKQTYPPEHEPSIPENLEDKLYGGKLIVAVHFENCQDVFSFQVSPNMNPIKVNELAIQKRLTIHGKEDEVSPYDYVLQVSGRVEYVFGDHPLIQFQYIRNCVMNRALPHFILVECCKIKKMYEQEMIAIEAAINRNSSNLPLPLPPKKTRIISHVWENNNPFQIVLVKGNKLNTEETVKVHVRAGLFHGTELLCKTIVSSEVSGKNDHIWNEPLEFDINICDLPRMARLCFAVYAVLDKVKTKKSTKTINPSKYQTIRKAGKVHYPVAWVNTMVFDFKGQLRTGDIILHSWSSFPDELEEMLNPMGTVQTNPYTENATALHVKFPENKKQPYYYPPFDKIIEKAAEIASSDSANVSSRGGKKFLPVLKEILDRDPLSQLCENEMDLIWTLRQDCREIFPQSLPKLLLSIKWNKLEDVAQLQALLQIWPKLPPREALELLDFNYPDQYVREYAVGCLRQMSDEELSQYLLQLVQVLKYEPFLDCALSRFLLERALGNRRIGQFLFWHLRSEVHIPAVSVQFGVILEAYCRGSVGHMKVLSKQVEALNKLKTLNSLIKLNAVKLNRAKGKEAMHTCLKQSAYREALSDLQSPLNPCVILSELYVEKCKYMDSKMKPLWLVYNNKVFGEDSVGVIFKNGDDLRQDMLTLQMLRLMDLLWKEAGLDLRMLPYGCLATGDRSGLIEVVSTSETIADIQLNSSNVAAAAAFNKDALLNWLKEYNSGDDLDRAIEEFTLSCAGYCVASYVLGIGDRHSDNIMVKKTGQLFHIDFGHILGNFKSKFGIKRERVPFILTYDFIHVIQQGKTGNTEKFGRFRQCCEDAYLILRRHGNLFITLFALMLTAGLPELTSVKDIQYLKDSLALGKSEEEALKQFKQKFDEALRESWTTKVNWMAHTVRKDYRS

[12] = molecular target: T4, Phosphatidylinositol 4,5-bisphosphate 3-kinase catalytic subunit gamma isoform (Homo sapiens, UniProt P48736); assay: Inhibition of PI3Kgamma (unknown origin) by TR-FRET assay
T4 sequence (P48736 whole entry, canonical isoform): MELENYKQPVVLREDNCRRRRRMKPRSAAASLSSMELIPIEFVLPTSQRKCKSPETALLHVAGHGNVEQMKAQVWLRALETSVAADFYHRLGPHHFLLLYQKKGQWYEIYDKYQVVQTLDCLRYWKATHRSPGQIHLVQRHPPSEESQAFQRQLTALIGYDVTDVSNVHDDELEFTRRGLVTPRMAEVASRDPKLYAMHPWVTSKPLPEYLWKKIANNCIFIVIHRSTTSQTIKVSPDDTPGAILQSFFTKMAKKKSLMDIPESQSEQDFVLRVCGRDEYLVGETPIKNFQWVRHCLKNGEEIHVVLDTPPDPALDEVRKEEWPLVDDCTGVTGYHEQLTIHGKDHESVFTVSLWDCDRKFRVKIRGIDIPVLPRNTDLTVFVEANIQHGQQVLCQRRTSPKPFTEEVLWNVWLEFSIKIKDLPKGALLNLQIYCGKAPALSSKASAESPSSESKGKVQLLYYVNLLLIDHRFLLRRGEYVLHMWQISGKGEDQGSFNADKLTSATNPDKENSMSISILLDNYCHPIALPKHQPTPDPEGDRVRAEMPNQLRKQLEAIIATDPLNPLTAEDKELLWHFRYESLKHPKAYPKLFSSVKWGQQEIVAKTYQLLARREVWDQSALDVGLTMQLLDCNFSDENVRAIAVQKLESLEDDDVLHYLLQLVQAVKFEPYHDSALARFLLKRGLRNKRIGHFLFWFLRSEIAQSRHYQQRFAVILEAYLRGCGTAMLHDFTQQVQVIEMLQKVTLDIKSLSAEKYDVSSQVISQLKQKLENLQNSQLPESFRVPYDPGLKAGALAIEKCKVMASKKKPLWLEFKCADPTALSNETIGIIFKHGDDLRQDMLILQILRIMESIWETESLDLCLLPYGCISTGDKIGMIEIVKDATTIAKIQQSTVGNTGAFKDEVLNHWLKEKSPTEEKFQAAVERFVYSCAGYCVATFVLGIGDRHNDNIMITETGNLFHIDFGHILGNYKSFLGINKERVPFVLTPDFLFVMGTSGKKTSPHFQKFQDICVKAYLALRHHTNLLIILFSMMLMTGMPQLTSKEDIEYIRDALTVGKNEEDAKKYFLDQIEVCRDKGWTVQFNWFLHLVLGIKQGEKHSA

[13] = molecular target: T5, Phosphatidylinositol 4,5-bisphosphate 3-kinase catalytic subunit delta isoform (Homo sapiens, UniProt O00329); assay: Inhibition of PI3Kdelta (unknown origin) by TR-FRET assay
T5 sequence (O00329 whole entry): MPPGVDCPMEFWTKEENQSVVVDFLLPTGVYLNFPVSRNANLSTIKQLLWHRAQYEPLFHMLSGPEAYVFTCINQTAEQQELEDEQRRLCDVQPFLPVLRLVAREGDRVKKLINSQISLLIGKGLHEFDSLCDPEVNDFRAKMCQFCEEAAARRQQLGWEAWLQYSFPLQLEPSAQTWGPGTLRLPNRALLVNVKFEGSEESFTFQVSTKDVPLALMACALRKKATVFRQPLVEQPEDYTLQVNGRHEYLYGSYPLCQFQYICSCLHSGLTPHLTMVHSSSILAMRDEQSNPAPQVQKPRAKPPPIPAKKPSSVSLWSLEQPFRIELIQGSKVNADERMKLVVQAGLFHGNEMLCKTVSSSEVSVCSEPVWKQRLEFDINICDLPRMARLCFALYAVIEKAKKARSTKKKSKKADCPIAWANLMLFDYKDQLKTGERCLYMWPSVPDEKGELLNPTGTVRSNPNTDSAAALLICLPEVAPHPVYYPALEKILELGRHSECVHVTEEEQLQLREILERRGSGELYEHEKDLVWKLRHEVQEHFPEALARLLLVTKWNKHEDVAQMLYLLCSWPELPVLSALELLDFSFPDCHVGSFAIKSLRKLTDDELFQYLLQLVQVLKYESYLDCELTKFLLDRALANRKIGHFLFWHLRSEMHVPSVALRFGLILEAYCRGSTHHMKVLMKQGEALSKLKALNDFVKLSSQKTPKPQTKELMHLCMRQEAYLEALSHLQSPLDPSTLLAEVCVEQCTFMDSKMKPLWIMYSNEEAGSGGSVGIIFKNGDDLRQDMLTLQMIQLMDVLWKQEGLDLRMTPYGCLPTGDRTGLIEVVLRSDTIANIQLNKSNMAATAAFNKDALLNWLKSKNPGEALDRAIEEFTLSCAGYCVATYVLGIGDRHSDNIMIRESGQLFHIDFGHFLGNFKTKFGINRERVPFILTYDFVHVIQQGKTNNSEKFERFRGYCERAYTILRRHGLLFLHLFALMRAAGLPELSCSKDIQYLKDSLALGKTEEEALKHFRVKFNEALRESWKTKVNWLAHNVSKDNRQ

mTORC1 [14] = molecular target: T2, mTORC1; assay: Inhibition of mTORC1 (unknown origin); type: protein-complex assay
[15] = molecular target: T3, Phosphatidylinositol 4,5-bisphosphate 3-kinase catalytic subunit alpha isoform; assay: Inhibition of human PI3Kalpha preincubated for 15 mins followed by ATP addition measured after 1 hr by TR-FRET assay
[16] = molecular target: T4, Phosphatidylinositol 4,5-bisphosphate 3-kinase catalytic subunit gamma isoform; assay: Inhibition of human PI3Kgamma preincubated for 15 mins followed by ATP addition measured after 1 hr by TR-FRET assay
[17] = molecular target: T5, Phosphatidylinositol 4,5-bisphosphate 3-kinase catalytic subunit delta isoform; assay: Inhibition of human PI3Kdelta preincubated for 15 mins followed by ATP addition measured after 1 hr by TR-FRET assay
mTORC2 = mTORC2 (Homo sapiens, UniProt P42345+Q6R327+Q9BPZ7+Q9BVC4); assay: Inhibition of mTORC2 (unknown origin); type: protein-complex assay
[18] = molecular target: T1, Serine/threonine-protein kinase mTOR; assay: Inhibition of mTOR (unknown origin)
[19] = molecular target: T3, Phosphatidylinositol 4,5-bisphosphate 3-kinase catalytic subunit alpha isoform; assay: Inhibition of PI3Kalpha (unknown origin)

solubility [1]: 4200 µg/mL | IC50 (A549): 7.4 µM
Structure (SMILES): CO[C@@H]1C[C@@H]2CC[C@@H](C)[C@@](O)(O2)C(=O)C(=O)N2CCCC[C@H]2C(=O)O[C@H]([C@H](C)C[C@@H]2CC[C@@H](OC(=O)C[n+]3csc(C)c3C)[C@H](OC)C2)CC(=O)[C@H](C)/C=C(\C)[C@@H](O)[C@@H](OC)C(=O)[C@H](C)C[C@H](C)/C=C/C=C/C=C/1C.[Br-]

IC50 (A549): 49.4 µM | IC50 (DU-145): 4000 nM | IC50 (PC-3): 1300 nM
Structure (SMILES): CO[C@H]1C[C@@H]2CC[C@@H](C)[C@@](O)(O2)C(=O)C(=O)N2CCCC[C@H]2C(=O)O[C@H]([C@H](C)C[C@@H]2CC[C@@H](O)[C@H](OC)C2)CC(=O)[C@H](C)/C=C(\C)[C@@H](O)[C@@H](OC)C(=O)[C@H](C)C[C@H](C)/C=C/C=C/C=C/1C [SIROLIMUS]
IC50 (SF-268): 2700 nM | IC50 [2]: 10 µM

IC50 [3]: < 1000 nM | IC50 [4]: < 1000 nM
Structure (SMILES): CN(C)C(=O)C1CCC(Oc2nc(-c3ccc(N)nc3)nc(N3CCOCC3)n2)CC1 (centres undefined)

residual activity [5]: < 5%
Structure (SMILES): CN(C)CC(=O)Nc1ccc(-c2ccc3ncc4c(c3c2)n(-c2ccc(C(C)(C)C#N)cc2)c2nncn42)cn1

inhibition (mTORC1 [6]): 77.7% | inhibition (mTORC1 [7]): 83.2% | inhibition (mTORC2 (Homo sapiens)): 56.2%
Structure (SMILES): C[C@H]1COCCN1c1nc(N2CCO[C@@H]3CCCC[C@@H]32)nc2nc(-c3cccc(C4=NCC(C)(C)N4)c3)ccc12

Ki [8]: 3.9 nM | IC50 (DU-145): 2.7 nM | IC50 (PC-3): 2.5 nM | IC50 (mTORC1 [9]): 0.1 nM
Structure (SMILES): CO[C@@H]1C[C@@H]2CC[C@@H](C)[C@@](O)(O2)C(=O)C(=O)N2CCCC[C@H]2C(=O)OC([C@H](C)C[C@@H]2C[C@@H]3C[C@H]2C[C@H]3O)CC(=O)[C@H](C)/C=C(\C)[C@@H](O)[C@@H](OC)C(=O)[C@H](C)C[C@H](C)/C=C/C=C/C=C/1C (some centres undefined)
IC50 (SF-268): 0.19 nM | IC50 [2]: 0.0022 µM

residual activity [5]: < 5%
Structure (SMILES): CC(C)(C#N)c1ccc(-n2c3c4cc(-c5ccc(NC(=O)CNC6CCCCC6)nc5)ccc4ncc3n3cnnc23)cc1

IC50 [10]: < 4.95 nM | IC50 [11]: 30.2 nM | IC50 [12]: 1.33 nM | IC50 [13]: < 0.495 nM
Structure (SMILES): NOCCOCCOCCOCCC(=O)N1CCN(c2cnc3ccc(-c4cnc(Cl)c(NS(=O)(=O)c5ccc(F)cc5)c4)cc3n2)CC1

IC50 (mTORC1 [14]): < 5 nM | IC50 [15]: 100 nM | IC50 [16]: 25 nM | IC50 [17]: 10 nM
Structure (SMILES): Nc1ncnc2c1c(-c1cc3cc(O)cc(Cl)c3[nH]1)nn2C1CCOCC1

IC50 [11]: 4.77 nM | IC50 [12]: 5.14 nM
Structure (SMILES): O=S(=O)(Nc1cc(-c2ccc3ncc(N4CCNCC4)nc3c2)cnc1Cl)c1ccc(F)cc1

IC50 (mTORC1 [14]): 176 nM | IC50 (mTORC2): 2410 nM | IC50 [18]: 2550 nM
Structure (SMILES): CC(C)(O)c1ccc(-c2cnc3[nH]c(=O)n(CC4CCOCC4)c3n2)cn1

solubility [1]: 100000 µg/mL | IC50 (A549): 6.23 µM
Structure (SMILES): CO[C@@H]1C[C@@H]2CC[C@@H](C)[C@@](O)(O2)C(=O)C(=O)N2CCCC[C@H]2C(=O)O[C@H]([C@H](C)C[C@@H]2CC[C@@H](OC(=O)C[n+]3csc(C)c3C)[C@H](OC)C2)CC(=O)[C@H](C)/C=C(\C)[C@@H](OC(=O)C[n+]2csc(C)c2C)[C@@H](OC)C(=O)[C@H](C)C[C@H](C)/C=C/C=C/C=C/1C.[Br-].[Br-]

IC50 [19]: > 30 µM
Structure (SMILES): CC(C)(O)c1ccc(-c2cnc3c(n2)N(CC2CCOCC2)CC(=O)N3)cn1

IC50 (mTORC1 [14]): 2 nM | IC50 (mTORC2): 40 nM | IC50 [18]: 18 nM
Structure (SMILES): O=c1[nH]c2ncc(-c3ccc(-c4nc[nH]n4)cc3)nc2n1CCC1CCOCC1

IC50 (mTORC1 [14]): < 5 nM | IC50 [15]: 100 nM | IC50 [16]: 10 nM | IC50 [17]: 10 nM
Structure (SMILES): COc1cccc2cc(-c3nn(C4CCOCC4)c4ncnc(N)c34)[nH]c12

solubility [1]: 10000 µg/mL | IC50 (A549): 3.04 µM
Structure (SMILES): CO[C@@H]1C[C@@H]2CC[C@@H](C)[C@@](O)(O2)C(=O)C(=O)N2CCCC[C@H]2C(=O)O[C@H]([C@H](C)C[C@@H]2CC[C@@H](O)[C@H](OC)C2)CC(=O)[C@H](C)/C=C(\C)[C@@H](OC(=O)C[n+]2csc(C)c2C)[C@@H](OC)C(=O)[C@H](C)C[C@H](C)/C=C/C=C/C=C/1C.[Br-]

IC50 (mTORC1 [14]): < 5 nM | IC50 [15]: 100 nM | IC50 [16]: 50 nM | IC50 [17]: 10 nM
Structure (SMILES): CC(=O)N1CCC(n2nc(-c3cc4cc(O)cc(Cl)c4[nH]3)c3c(N)ncnc32)CC1
